# Test results from patent US7385051B2, “Fluorescent N2,N3-etheno-purine (2′-deoxy) riboside derivatives and uses thereof” (Bar-llan University, priority 2005, dated 2008).
# pEC50: −log10 of the molar value. Entries after “also recorded” stand apart in the source; their conditions may differ.
# Columns and labels:
# NTPDase2 [1] = target: T1, NTPDase2 (Homo sapiens, UniProt Q9Y5L3); experiment: Hydrolysis as substrates of NTPDase2; type: biochemical; conditions: substrate at 200 μM
# T1 sequence (Q9Y5L3 1-495): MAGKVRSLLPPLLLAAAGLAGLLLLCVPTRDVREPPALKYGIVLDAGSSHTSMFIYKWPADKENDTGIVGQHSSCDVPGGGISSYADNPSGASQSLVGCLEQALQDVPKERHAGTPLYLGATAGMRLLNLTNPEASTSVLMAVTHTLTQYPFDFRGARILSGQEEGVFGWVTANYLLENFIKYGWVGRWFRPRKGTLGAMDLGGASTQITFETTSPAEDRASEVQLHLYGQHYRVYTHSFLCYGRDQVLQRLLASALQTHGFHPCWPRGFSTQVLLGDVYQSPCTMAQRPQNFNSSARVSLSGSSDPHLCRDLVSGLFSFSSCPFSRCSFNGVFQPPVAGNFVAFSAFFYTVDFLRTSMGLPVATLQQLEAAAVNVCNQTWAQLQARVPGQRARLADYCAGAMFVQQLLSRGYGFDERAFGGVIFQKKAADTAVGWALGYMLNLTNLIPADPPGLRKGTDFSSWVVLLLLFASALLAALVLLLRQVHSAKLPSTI
# Description: (§1) For evaluation of the probes as substrates/inhibitors of NTPDase1 and 2, the analogues 30a-f were evaluated as either substrates or inhibitors of NTPDase1 and 2. We tested ATP and analogues 30 as substrates of NTPDases 1 and 2 at 100 μM for NTPDase1 and 200 μM for NTPDase2. All analogues were hydrolysed by NTPDases 1 and 2. NTPDase2 hydrolysed analogues 30 better than NTPDase1. When compared to ATP, the rate of hydrolysis of all analogues was lower for NTPDase1 and mostly similar for NTPDase2 (FIGS. 7A-7B).
# NTPDase1 = target: T2, NTPDase1 (Homo sapiens, UniProt P49961); experiment: Hydrolysis as substrates of NTPDase1; type: biochemical; conditions: substrate at 100 μM
# T2 sequence (P49961 1-510): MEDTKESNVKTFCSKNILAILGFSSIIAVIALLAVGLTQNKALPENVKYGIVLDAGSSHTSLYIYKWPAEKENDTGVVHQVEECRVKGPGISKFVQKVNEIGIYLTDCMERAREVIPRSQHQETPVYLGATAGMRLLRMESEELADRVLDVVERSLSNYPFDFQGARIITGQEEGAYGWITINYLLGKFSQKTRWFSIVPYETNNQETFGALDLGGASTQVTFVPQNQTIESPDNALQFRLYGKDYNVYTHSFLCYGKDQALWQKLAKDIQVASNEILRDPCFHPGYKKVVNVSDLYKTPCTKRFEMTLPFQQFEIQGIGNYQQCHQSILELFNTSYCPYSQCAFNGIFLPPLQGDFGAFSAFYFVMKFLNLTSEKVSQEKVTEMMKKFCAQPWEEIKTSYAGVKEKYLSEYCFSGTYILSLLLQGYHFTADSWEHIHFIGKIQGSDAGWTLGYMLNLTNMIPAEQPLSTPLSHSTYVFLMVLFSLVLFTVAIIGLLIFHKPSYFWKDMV
# Description: as §1
# NTPDase2 [2] = target: T1, NTPDase2; experiment: Fluorescence spectra of the nucleotide with and without NTPDase2; type: biochemical; parameters: made in house; host or cells: COS-7 cells (transfected; lysate used as enzyme); conditions: 200 μM nucleotide, excitation at 290 nm
# Text: Next, we tested whether N^2,N3-ε-A is suitable for probing ectonucleotidases. […] For this purpose, we measured the fluorescence spectra of 30a and its monophosphate homologue with and without human NTPDase2. We observed that the fluorescence intensity of the nucleotide decreased by ca. ⅓ upon the addition of the enzyme (not shown). This observation is consistent with the lower dielectric constant (polarity) of the protein as compared to that of the aqueous solution. Fluorescence intensity of the bound nucleotide, although lowered, still enables the application of this nucleotide as a fluorescent probe.
# For the fluorescence studies of 30a-NTPDase2 complex, emission spectra of 30a and its monophosphate homologue, 30a′, were measured in the presence of human NTPDase2 using an Aminco-Bowman series 2 Luminescence Spectrometer. Measurement conditions included: 740-780 V sensitivity, 37° C. and excitation at 290 nm. The concentration of the samples was of the order of 2×10^−4 M in the NTPDase incubation mixture. Measurements of the emission spectra were performed in 1.5 ml of 200 μM 30a and 30a′, without enzyme. Enzyme was added (3.6 μg of transfected COS-7 cells lysate), then, emission spectra were measured at 5 min intervals. […]
# rat brain P2Y1-receptor = target: T3, rat brain P2Y1-receptor (Rattus norvegicus, UniProt P49651); experiment: Agonist-induced Ca2+ release in HEK 293 cells stably transfected with P2Y1-receptor; type: cell-based; conditions: HEK 293 cells with rat brain P2Y1-receptor
# T3 construct: expressed in transfected cells
# T3 sequence (P49651 whole entry): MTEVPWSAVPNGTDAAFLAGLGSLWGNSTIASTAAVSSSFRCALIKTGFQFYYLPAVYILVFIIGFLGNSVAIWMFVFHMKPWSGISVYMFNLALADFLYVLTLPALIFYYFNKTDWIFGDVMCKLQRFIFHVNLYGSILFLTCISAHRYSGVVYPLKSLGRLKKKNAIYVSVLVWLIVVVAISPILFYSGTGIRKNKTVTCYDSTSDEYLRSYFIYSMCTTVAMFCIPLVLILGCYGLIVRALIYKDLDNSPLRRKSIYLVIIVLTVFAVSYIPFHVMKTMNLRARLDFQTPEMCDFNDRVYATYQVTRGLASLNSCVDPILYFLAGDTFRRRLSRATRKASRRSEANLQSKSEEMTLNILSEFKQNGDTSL
# Text: To examine the efficacy of analogues 30a,d in a functional assay, we tested them by the agonist-induced Ca^2+ release in HEK 293 cells stably transfected with rat brain P2Y1-receptor (FIG. 6) (Voehringer et al., 2000). […] However, a benzyl substitution at N^6 of 30a, as in analogue 30d, reduced the ligand's potency. […] EC50 value in the range of 10^−6 M.
Structure (SMILES),Rate of hydrolysis by NTPDase2 compared to ATP (NTPDase2 [1]),Rate of hydrolysis by NTPDase1 compared to ATP (NTPDase1),"Decrease of fluorescence intensity upon the addition of the enzyme (NTPDase2 [2]; human NTPDase2 (3.6 μg COS-7 lysate), 37° C.)","Shift of maximum emission upon the addition of the enzyme (NTPDase2 [2]; human NTPDase2, 37° C.)",pEC50 (rat brain P2Y1-receptor; Ca^2+ release),Potency at P2Y1-R compared to ATP / 30a (rat brain P2Y1-receptor)
"O=P(O)(O)OP(=O)(O)OP(=O)(O)OCC1OC(n2cnc3c(N(Cc4ccccc4)Cc4ccccc4)nc4nccn4c32)C(O)C1O (stereo not shown) [Compound 30e, N^6,N^6-Dibenzyl-N^2,N3-ethenoadenosine-5′-triphosphate]",less efficiently than ATP; also recorded: significant reduction of the affinities,less efficiently than ATP,,,,
"Nc1nc2nccn2c2c1ncn2C1OC(COP(=O)(O)OP(=O)(O)OP(=O)(O)O)C(O)C1O (stereo not shown) [Compound 30a, N^2,N3-ethenoadenosine-5′-triphosphate]",almost equipotent to ATP,,ca. ⅓; also recorded: lower fluorescence intensity,does not shift,~7.00,almost equipotent with ATP; also recorded: almost equipotent to ATP
